According to patent US20060003364A1, “GLUT1 transporters expressed in cancer cells” (XenoPort, Inc., priority 2004, published 2006):

Target: T1, GLUT1 (Homo sapiens, UniProt P11166)
T1 sequence (P11166 1-492): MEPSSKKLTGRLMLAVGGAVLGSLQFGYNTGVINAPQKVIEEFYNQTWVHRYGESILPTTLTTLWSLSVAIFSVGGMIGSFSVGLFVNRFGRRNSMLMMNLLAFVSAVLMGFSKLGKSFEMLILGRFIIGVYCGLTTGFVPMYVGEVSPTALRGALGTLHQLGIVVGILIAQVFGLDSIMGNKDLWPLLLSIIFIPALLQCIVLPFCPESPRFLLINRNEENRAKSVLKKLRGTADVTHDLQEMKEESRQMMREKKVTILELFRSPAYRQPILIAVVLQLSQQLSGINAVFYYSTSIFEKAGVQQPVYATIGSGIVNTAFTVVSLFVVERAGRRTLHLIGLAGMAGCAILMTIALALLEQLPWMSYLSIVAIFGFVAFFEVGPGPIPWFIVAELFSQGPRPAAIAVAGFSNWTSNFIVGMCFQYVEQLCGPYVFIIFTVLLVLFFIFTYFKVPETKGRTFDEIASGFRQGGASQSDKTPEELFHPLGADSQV
Test: not given
Details: cited from earlier work

First: Fluorodeoxyglucose
Second: N[C@H]1C(O)O[C@H](CO)[C@@H](O)[C@@H]1O (stereo partly drawn) [Glucosamine]
The “Reported Affinity for GLUT1” value of the first is 2.2-fold lower: 4 mM for the first, 9 mM for the second.

First: O=C1O[C@H]([C@@H](O)CO)C(=O)C1=O [Dehydroascorbic Acid]
Second: O=C[C@H](O)[C@@H](O)[C@@H](O)[C@H](O)CO [Galactose]
The “Reported Affinity for GLUT1” value of the first is 5-fold lower: 0.8 mM for the first, 4 mM for the second.

For “(S)-methoxy-a-methyl-2-napthalene acetic acid amido galacto pyranose”, the “Reported Affinity for GLUT1” value is given as 1 mM.

Target: T1, GLUT1
Test: Radiolabel glucose uptake in Xenopus oocytes expressing GLUT1
Assay type: cell-based
Set-up: expressed in transfected cells; host or cells: Xenopus oocytes (cRNA injected)
Details: oocytes expressing GLUT1 vs noninjected controls; 3 minutes, ND96 buffer
Experimental: To assess transport function of a specific transporter protein, it can be desirable to clone the cDNA and express the protein in cells that have low endogenous transport activity. Human GLUT1 was cloned by PCR, fully sequenced, and subcloned into plasmids that can be used for expression in mammalian cells or Xenopus oocytes. […] For expression in Xenopus oocytes, in vitro GLUT1 cRNA was prepared and injected into defoliculated oocytes.
Oocytes expressing GLUT1 or control oocytes not expressing GLUT1 were incubated in an oocyte ringers (ND96) buffer ([…], 10 mM HemiNa HEPES, 2 mM KCl, 1 mM MgCl, 1.8 mM CaCl2) containing 0.5% bovine serum albumin and 3H-glucose (10^6 CPM/ml) for 3 minutes. Oocytes were washed and uptake of radiolabel quantified by scintillation counting.

In the case of `O=C[C@H](O)[C@@H](O)[C@H](O)[C@H](O)CO` [^3H-glucose], the 3H-glucose uptake is reported as “higher levels of ^3H-glucose uptake than noninjected controls”.
